{"source": "patent US20140303109A1", "about": "(priority 2010, published 2014)", "key": {"[1]": {"system": "NF-κB DNA binding activity", "test": "EMSA for NF-κB DNA binding activity, three PC lines", "type": "cell-based, human", "details": "72 h; CDF/CUR 1 or 4 μMol/L, GEM 10 nMol/L", "method": "The DNA binding activity of the nuclear transcription factor, NF-κB was assessed in the BxPC-3, MIAPaCa-E, and MIAPaCa-M cell lines by EMSA. […] The cells were lysed in 400 μl of lysis buffer and the reaction was set up as described earlier in Ali, et al., id. The gel was scanned using an Odyssey Infrared Imaging System, (LI-COR, Inc., Lincoln, Nebr.). Equal protein loading was ensured by immunoblotting 10 μg of nuclear protein and probing with anti-retinoblastoma antibody."}, "[2]": {"system": "miR-200b and miR-200c", "test": "Real-time RT-PCR of miR-200b and miR-200c in PC cell lines", "type": "cell-based, human", "details": "72 h; BxPC-3, MIAPaCa-E, MIAPaCaM", "method": "The expression of miRNAs (miRNA-200a, miR-200b, and miR-21) in all three pancreatic cancer cell lines, was measured with a TaqMan MicroRNA Assay kit (Applied Biosystems, Carlsbad, Calif.) following the manufacturer's protocol. […] Real-time RT-PCR reactions were then carried out in a total volume of 25 μl reaction mixture, as described by Li, et al., id., using Smart Cycler II (Cepheid, Sunnyvale, Calif.). The data were analyzed using Ct method and were normalized by RNU6B expression in each sample."}, "[3]": {"system": "PGE2", "test": "PGE2 immunoassay, three PC lines", "type": "cell-based, human", "details": "24 h serum-free; CDF or CUR 1-4 μMol/L, GEM 10 nMol/L"}, "[4]": {"system": "NF-κB DNA binding activity", "test": "EMSA for NF-κB DNA binding activity in tumor tissue", "type": "in vivo, mice", "details": "MIA PaCa-2 tumors", "method": "Nuclear extracts were prepared from tumor tissue induced by the MIA PaCa-2 cells using an homogenizer with 400 μl of ice cold lysis buffer extracted as described earlier. EMSA was performed using the Odyssey Infrared Imaging System with NF-κβ 1RDye labeled oligonucleotide from LI-COR, Inc. (Lincoln, Nebr.). An NF-Kβ competition control study was conducted using unlabeled NF-Kβ consensus oligonucleotide. The samples were loaded and run at 30 mA for 1 hour. The gel was scanned using Odyssey Infrared Imaging System (LI-COR, Inc.)."}}, "data": [{"smiles": "Nc1ccn([C@@H]2O[C@H](CO)[C@@H](O)C2(F)F)c(=O)n1", "note": "[GEM, gemcitabine]", "values": [{"measurement": "NF-κβ DNA binding activity", "setting": "[1]", "result": "activation of NF-κβ in all three cell lines"}, {"measurement": "expression of miR-200b and miR-200c", "setting": "[2]", "result": "increased expression of miR-200b and miR-200c"}, {"measurement": "PGE2 secretion level", "setting": "[3]", "result": "substantial increase in the level of PGE2 secretion"}, {"measurement": "NF-κβ activation in tumor tissue", "setting": "[4]", "result": "activated NF-κβ levels"}]}]}
